In ChEMBL document CHEMBL5726283, “Cycloalkyl nitrile pyrazolo pyridones as Janus kinase inhibitors” (2017):
pIC50: −log10 of the molar value.

Key:
[1] = molecular target: Tyrosine-protein kinase JAK1 (Homo sapiens, UniProt P23458); test: Biochemical HTRF Assay Protocol: The ability of compounds to inhibit the activity of JAK1, JAK2, JAK3, and Tyk2 was measured using a recombinant purified GST-tagged catalytic domain for each enzyme (Invitrogen JAK1 #M4290, JAK2 #M4290, JAK3 #M4290, Tyk2 #M4290) in an HTRF format biochemical assay. The reactions employed a common peptide substrate, LCB-[…]-NH2 (in-house). The basic assay protocol is as follows: First, 250 nL of diluted compounds in DMSO were dispensed into the wells of a dry 384-well Black plate (Greiner #781076) using a Labcyte Echo 555 acoustic dispenser. Subsequent reagent additions employed an Agilent Bravo. Next, 18 μL of 1.11× enzyme and 1.11× substrate in 1× assay buffer (Invitrogen kinase buffer #PV3189, 2 mM DTT, 0.05% BSA) were added to the wells and shaken and then preincubated for 30 minutes at room temperature to allow compound binding to equilibrate. After equilibration, 2 μL of 10×ATP in 1× assay buffer was added to initiate the kinase reaction and the plates were shaken and then incubated at room temperature for 120 minutes. At the end of the incubation, 20 μL of 2× stop buffer (streptavidin-Dylight 650 (Thermo #84547B/100 mL), Eu-tagged pY20 antibody (Perkin Elmer #AD0067), EDTA, HEPES, and Triton) was added to quench the reaction. Plates were shaken and centrifuged and then incubated 60 minutes at room temperature and then read on a Perkin Elmer Envision (λex=337 nm, λem=665 and 615 nm, TRF delay time=20 μs). HTRF signal=10,000*665 nm reading/615 nm reading. After normalization to untreated controls, the percent inhibition of the HTRF signal at each compound concentration was calculated.
Chain of Tyrosine-protein kinase JAK1 (P23458 whole entry, the tested form may be a part): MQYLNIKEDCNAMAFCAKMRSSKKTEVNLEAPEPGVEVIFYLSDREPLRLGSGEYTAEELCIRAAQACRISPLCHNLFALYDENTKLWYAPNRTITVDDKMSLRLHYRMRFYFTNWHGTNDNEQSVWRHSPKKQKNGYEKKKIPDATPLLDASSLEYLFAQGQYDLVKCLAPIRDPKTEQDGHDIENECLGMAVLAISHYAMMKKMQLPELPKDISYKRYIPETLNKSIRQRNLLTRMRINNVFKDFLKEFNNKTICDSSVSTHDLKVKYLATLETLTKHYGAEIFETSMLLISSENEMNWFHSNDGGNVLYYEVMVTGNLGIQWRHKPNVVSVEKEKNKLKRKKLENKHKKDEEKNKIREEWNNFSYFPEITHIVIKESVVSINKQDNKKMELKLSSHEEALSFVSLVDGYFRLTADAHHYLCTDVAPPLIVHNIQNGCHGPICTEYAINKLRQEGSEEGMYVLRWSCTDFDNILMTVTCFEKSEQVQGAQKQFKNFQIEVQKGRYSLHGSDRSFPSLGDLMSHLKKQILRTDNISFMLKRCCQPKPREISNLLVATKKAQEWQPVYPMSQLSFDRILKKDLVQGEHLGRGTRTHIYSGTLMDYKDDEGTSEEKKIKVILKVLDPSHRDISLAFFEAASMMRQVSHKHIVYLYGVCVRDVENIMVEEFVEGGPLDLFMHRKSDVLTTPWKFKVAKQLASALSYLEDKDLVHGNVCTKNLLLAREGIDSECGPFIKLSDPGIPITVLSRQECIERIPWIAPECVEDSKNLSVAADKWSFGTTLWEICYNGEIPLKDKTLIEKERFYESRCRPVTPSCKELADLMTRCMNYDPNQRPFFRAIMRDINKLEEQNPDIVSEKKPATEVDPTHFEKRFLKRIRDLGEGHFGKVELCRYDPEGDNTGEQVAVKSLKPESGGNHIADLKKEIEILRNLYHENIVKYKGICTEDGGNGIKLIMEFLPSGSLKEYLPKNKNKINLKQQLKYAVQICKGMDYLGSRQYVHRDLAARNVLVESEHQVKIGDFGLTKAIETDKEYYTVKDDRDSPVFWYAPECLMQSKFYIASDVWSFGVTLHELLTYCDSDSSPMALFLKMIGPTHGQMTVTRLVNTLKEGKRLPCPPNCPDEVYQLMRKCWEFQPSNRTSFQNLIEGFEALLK

[2] = molecular target: Tyrosine-protein kinase JAK2 (Homo sapiens, UniProt O60674); test: Biochemical HTRF Assay Protocol: The ability of compounds to inhibit the activity of JAK1, JAK2, JAK3, and Tyk2 was measured using a recombinant purified GST-tagged catalytic domain for each enzyme (Invitrogen JAK1 #M4290, JAK2 #M4290, JAK3 #M4290, Tyk2 #M4290) in an HTRF format biochemical assay. […] Subsequent reagent additions employed an Agilent Bravo. […] After equilibration, 2 μL of 10×ATP in 1× assay buffer was added to initiate the kinase reaction and the plates were shaken and then incubated at room temperature for 120 minutes. […] After normalization to untreated controls, the percent inhibition of the HTRF signal at each compound concentration was calculated.
Chain of Tyrosine-protein kinase JAK2 (O60674 whole entry, the tested form may be a part): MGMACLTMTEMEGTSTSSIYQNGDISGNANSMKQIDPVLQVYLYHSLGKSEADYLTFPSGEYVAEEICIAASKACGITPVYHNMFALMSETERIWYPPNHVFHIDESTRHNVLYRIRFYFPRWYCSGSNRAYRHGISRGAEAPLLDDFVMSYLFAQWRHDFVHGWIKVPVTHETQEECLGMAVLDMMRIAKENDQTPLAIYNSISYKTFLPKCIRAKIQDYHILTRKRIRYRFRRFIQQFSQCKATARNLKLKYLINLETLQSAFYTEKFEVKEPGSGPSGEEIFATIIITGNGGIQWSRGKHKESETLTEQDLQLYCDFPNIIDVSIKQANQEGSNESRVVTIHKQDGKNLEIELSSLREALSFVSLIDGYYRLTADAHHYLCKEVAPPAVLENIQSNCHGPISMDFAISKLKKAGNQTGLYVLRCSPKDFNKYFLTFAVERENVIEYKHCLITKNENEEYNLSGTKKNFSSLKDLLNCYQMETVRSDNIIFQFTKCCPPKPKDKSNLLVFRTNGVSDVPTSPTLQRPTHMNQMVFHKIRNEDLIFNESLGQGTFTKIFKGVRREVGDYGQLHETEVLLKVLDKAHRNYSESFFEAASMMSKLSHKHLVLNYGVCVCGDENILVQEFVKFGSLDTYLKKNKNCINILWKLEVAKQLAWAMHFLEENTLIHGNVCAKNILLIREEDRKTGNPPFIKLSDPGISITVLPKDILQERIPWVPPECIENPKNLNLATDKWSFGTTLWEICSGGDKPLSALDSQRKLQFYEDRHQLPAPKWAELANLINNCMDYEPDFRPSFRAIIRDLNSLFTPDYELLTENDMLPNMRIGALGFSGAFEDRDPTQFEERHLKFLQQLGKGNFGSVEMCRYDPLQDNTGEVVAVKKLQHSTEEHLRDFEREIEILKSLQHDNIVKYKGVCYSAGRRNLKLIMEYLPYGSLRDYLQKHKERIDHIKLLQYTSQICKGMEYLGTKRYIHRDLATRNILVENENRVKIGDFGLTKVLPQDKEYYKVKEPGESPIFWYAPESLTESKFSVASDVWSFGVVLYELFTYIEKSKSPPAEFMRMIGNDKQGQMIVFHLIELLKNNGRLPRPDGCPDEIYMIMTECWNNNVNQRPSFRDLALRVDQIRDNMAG

pIC50 [1] | pIC50 [2] | Compound
9.96 | 9.52 | CN(C)S(=O)(=O)c1ccc(Nc2nn([C@H]3CCC[C@@H]3C#N)c3cc[nH]c(=O)c23)cc1
9.32 | – | N#C[C@H]1C[C@H](O)CC[C@@H]1n1nc(Nc2ccc(C(F)(F)F)cc2)c2c(=O)[nH]ccc21
8.33 | – | CS(=O)(=O)c1ccc(Nc2nn([C@@H]3CCC[C@H]3C#N)c3cc[nH]c(=O)c23)cc1
9.49 | 9.43 | Cc1cc(Nc2nn([C@H]3CCCC[C@@H]3C#N)c3cc[nH]c(=O)c23)ccc1C(=O)N1CCC(F)(F)CC1
